Source: publication PMC5503199 (Molecular microbiology, 2009)
Read-outs that look alike come from different tables or passages of the source.

How the values were obtained:
[1] = system: E. coli strains MKH13 and Acella; assay: Total uptake by E. coli strains carrying empty vector; assay type: cell-based, Escherichia coli
[2] = system: CbcXWV from DC3000; assay type: cell-based, Pseudomonas syringae pv. tomato; settings: Acella, pET-cbcDC3000; 1 mM IPTG; substrate 1 mM; mean (SE), n = 10
[3] = system: CbcXWV from B728a; assay type: cell-based, Pseudomonas syringae pv. syringae; settings: Acella, pET-cbcB728a; 1 mM IPTG; substrate 1 mM; single colony
[4] = system: cbcXWV from DC3000 in QAC transporter-deficient BT strain; assay type: cell-based, Pseudomonas syringae pv. tomato; settings: BT(pCbcDC3000), unlabelled competitor 0.5 mM, 10 min
[5] = system: P. syringae BT-derived mutants; assay type: cell-based, Pseudomonas syringae pv. syringae; settings: pN
[6] = system: complete Cbc transporter CbcXWV (PAO1); assay type: cell-based, Pseudomonas aeruginosa; settings: for Total uptake: pNcbcXWV; for choline uptake by CbcXWV: BT strain derivatives
[7] = system: S. meliloti ChoXWV transporter; assay type: cell-based, Sinorhizobium meliloti
[8] = system: Cbc core transporter CbcWV; assay type: cell-based, Pseudomonas aeruginosa; settings: MKH13, pNcbcWV, SBP None, substrate 10 μM, single replication
[9] = system: CbcWV with CaiXB728a; assay type: cell-based, Pseudomonas syringae pv. syringae; settings: MKH13; pNcbcWV, pT-B2916; SBP CaiXB728a; substrate 10 μM; single replication
[10] = target: T1, BetX with CbcWV (Pseudomonas aeruginosa, UniProt Q9HZ04); assay: Competitive uptake, MKH13 expressing cbcWV and betX; assay type: cell-based; settings: pNcbcWV, pT-PA3236, SBP BetX, [^14C]betaine 10 μM, competitor 1 mM
T1 sequence (Q9HZ04 26-285): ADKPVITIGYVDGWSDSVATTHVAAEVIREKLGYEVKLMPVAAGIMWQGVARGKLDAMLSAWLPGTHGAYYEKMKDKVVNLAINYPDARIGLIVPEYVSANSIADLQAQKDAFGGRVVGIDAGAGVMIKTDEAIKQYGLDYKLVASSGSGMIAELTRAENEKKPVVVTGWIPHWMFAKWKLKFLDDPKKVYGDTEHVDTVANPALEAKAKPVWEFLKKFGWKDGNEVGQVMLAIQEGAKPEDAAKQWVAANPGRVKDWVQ
T1 sequence (Q9HTI7 1-279 partner): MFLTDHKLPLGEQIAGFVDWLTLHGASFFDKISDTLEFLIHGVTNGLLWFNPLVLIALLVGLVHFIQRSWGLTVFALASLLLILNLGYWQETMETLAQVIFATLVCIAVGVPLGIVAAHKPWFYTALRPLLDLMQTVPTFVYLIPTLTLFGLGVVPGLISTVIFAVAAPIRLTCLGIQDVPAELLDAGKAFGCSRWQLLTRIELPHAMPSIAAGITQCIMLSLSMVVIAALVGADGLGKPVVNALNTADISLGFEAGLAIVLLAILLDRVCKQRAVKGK
T1 sequence (Q9HTI8 1-392 partner): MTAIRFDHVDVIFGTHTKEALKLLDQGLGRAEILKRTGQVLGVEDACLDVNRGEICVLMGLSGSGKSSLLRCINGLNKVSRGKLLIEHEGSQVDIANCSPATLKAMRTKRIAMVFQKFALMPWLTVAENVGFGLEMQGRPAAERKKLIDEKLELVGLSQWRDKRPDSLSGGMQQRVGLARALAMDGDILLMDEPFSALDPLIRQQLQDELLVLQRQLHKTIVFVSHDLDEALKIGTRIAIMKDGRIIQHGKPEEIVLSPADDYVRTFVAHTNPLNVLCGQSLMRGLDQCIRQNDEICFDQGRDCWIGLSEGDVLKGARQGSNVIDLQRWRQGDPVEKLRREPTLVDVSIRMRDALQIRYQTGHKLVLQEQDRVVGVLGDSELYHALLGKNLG

[11] = system: CaiX with CbcWV; assay type: cell-based, Pseudomonas aeruginosa; settings: MKH13; pNcbcWV, pT-PA5388; SBP CaiX; [^14C]carnitine 10 μM; competitor 1 mM
[12] = system: CbcX and CaiX with CbcWV; assay type: cell-based, Pseudomonas aeruginosa; settings: MKH13, pNcbcXWV, pT-PA5388, SBPs CbcX/CaiX, competitor 1 mM
[13] = Acella, pET15b, 1 mM IPTG, substrate 1 mM, single colony
[14] = MKH13, pME6041, radiolabelled substrate 1 mM, mean (SE), n = 10
[15] = host BT2916Ko, substrate 10 μM, single replication
[16] = host BT0028Ko, substrate 10 μM, mean (SE), n = 2
[17] = host BT3758Ko, substrate 10 μM, mean (SE), n = 3
[18] = pNchoXW, host BT0028Ko, substrate 10 μM, mean (SE), n = 2
[19] = pNchoXW, host BT3758Ko, substrate 10 μM, mean (SE), n = 3
[20] = pNchoXWV, host BT2916Ko, substrate 10 μM, single replication
[21] = host BT2916Ko, substrate 1 mM, single replication

C[N+](C)(C)CC(=O)O [Betaine, glycine betaine]
Total uptake [1, 13]: 8.2 nmol (mg protein)^−1 | Total uptake [1, 14]: 0.5 (0.5) nmol (mg protein)^−1 | Total uptake [2]: 17.0 (1.8) nmol (mg protein)^−1 | Total uptake [3]: 16.2 nmol (mg protein)^−1 | % inhibition of uptake of [^14C]substrate ([4]; [^14C]betaine 5 μM): 89% | % inhibition of uptake of [^14C]substrate ([4]; [^14C]carnitine 5 μM): 88% | % inhibition of uptake of [^14C]substrate ([4]; [^14C]choline 5 μM): 12% | Total uptake ([5]; host BT0028Ko, substrate 10 μM): 0.0 nmol (mg protein)^−1 | Total uptake [5, 15]: 0.0 nmol (mg protein)^−1 | Total uptake ([5]; host BT3758Ko, substrate 10 μM): 0.0 nmol (mg protein)^−1 | Total uptake [6, 16]: 16.1 (0.41) nmol (mg protein)^−1 | Total uptake [6, 15]: 16.0 nmol (mg protein)^−1 | Total uptake [6, 17]: 14.3 (0.24) nmol (mg protein)^−1 | Total uptake [7, 18]: 2.8 (0.3) nmol (mg protein)^−1 | Total uptake [7, 19]: 3.0 (0.64) nmol (mg protein)^−1 | Total uptake [7, 20]: 3.0 nmol (mg protein)^−1 | Total uptake ([8]; Plasmid 2 None): 0 nmol (mg protein)^−1 | Total uptake ([8]; pTOK2T): 0 nmol (mg protein)^−1 | Total uptake [9]: 0 nmol (mg protein)^−1 | % inhibition of uptake of substrate by unlabelled competitor [10]: 94% | % inhibition of uptake of substrate by unlabelled competitor [11]: 5% | % inhibition of uptake of substrate by unlabelled competitor ([12]; [^14C]betaine 10 μM): 88% | % inhibition of uptake of substrate by unlabelled competitor ([12]; [^14C]choline 10 μM): −1%

C[N+](C)(C)C[C@H](O)CC(=O)[O-] [Carnitine, L-carnitine]
Total uptake [1, 13]: 0 nmol (mg protein)^−1 | Total uptake [1, 14]: 0.5 (0.3) nmol (mg protein)^−1 | Total uptake [2]: 0.59 (0.82) nmol (mg protein)^−1 | Total uptake [3]: 0 nmol (mg protein)^−1 | % inhibition of uptake of [^14C]substrate ([4]; [^14C]betaine 5 μM): −2% | % inhibition of uptake of [^14C]substrate ([4]; [^14C]carnitine 5 μM): 94% | % inhibition of uptake of [^14C]substrate ([4]; [^14C]choline 5 μM): −6% | Total uptake ([5]; host BT0028Ko, substrate 10 μM): 0.0 nmol (mg protein)^−1 | Total uptake [5, 15]: 0.1 nmol (mg protein)^−1 | Total uptake ([5]; host BT3758Ko, substrate 10 μM): 0.0 nmol (mg protein)^−1 | Total uptake [6, 16]: 7.0 (0.4) nmol (mg protein)^−1 | Total uptake [6, 15]: 0.5 nmol (mg protein)^−1 | Total uptake [6, 17]: 13.0 (0.3) nmol (mg protein)^−1 | Total uptake [7, 18]: 1.2 (0.1) nmol (mg protein)^−1 | Total uptake [7, 19]: 1.8 (0.4) nmol (mg protein)^−1 | Total uptake [7, 20]: 0.1 nmol (mg protein)^−1 | Total uptake ([8]; Plasmid 2 None): 0 nmol (mg protein)^−1 | Total uptake ([8]; pTOK2T): 0 nmol (mg protein)^−1 | Total uptake [9]: 3.7 nmol (mg protein)^−1 | % inhibition of uptake of substrate by unlabelled competitor [10]: 3% | % inhibition of uptake of substrate by unlabelled competitor [11]: 91% | % inhibition of uptake of substrate by unlabelled competitor ([12]; [^14C]betaine 10 μM): 10% | % inhibition of uptake of substrate by unlabelled competitor ([12]; [^14C]choline 10 μM): −2%

C[N+](C)(C)CCO [Choline, choline]
Total uptake [1, 13]: 0 nmol (mg protein)^−1 | Total uptake [1, 14]: 0.2 (0.1) nmol (mg protein)^−1 | Total uptake [2]: 15.0 (2.4) nmol (mg protein)^−1 | Total uptake [3]: 19.2 nmol (mg protein)^−1 | % inhibition of uptake of [^14C]substrate ([4]; [^14C]betaine 5 μM): −6% | % inhibition of uptake of [^14C]substrate ([4]; [^14C]carnitine 5 μM): 81% | % inhibition of uptake of [^14C]substrate ([4]; [^14C]choline 5 μM): 89% | Total uptake ([5]; host BT0028Ko, substrate 10 μM): 0.0 nmol (mg protein)^−1 | Total uptake ([5]; host BT0028Ko, substrate 1 mM): 0 nmol (mg protein)^−1 | Total uptake [5, 15]: 0.0 nmol (mg protein)^−1 | Total uptake [5, 21]: 0 nmol (mg protein)^−1 | Total uptake ([5]; host BT3758Ko, substrate 10 μM): 0.0 nmol (mg protein)^−1 | Total uptake ([5]; host BT3758Ko, substrate 1 mM): 0 nmol (mg protein)^−1 | choline uptake by CbcXWV ([6]; choline 10 μM (summary of Table 4)): 16 to 18 nmol (mg protein)^−1 | choline uptake by CbcXWV ([6]; choline 1 mM (summary of Table 4)): 562–648 nmol (mg protein)^−1 | share of choline uptake mediated by CbcX ([6]; at low (10 μM) and high (1 mM) [^14C]choline concentrations, BT derivatives): approximately 99% | Total uptake [6, 16]: 18.2 (0.36) nmol (mg protein)^−1 | Total uptake ([6]; host BT0028Ko, substrate 1 mM, mean (SE), n = 2): 562 (6.8) nmol (mg protein)^−1 | Total uptake [6, 15]: 16.2 nmol (mg protein)^−1 | Total uptake [6, 21]: 644 nmol (mg protein)^−1 | Total uptake [6, 17]: 16.4 (0.18) nmol (mg protein)^−1 | Total uptake ([6]; host BT3758Ko, substrate 1 mM, mean (SE), n = 3): 648 (27.5) nmol (mg protein)^−1 | Total uptake [7, 18]: 7.8 (0.07) nmol (mg protein)^−1 | Total uptake ([7]; pNchoXW, host BT0028Ko, substrate 1 mM, mean (SE), n = 2): 8.5 (1.4) nmol (mg protein)^−1 | Total uptake [7, 19]: 8.6 (1.28) nmol (mg protein)^−1 | Total uptake ([7]; pNchoXW, host BT3758Ko, substrate 1 mM, mean (SE), n = 3): 7.4 (0.8) nmol (mg protein)^−1 | Total uptake [7, 20]: 6.5 nmol (mg protein)^−1 | Total uptake ([7]; pNchoXWV, host BT2916Ko, substrate 1 mM, single replication): 6.1 nmol (mg protein)^−1 | Total uptake ([8]; Plasmid 2 None): 0 nmol (mg protein)^−1 | Total uptake ([8]; pTOK2T): 0 nmol (mg protein)^−1 | Total uptake [9]: 0 nmol (mg protein)^−1 | % inhibition of uptake of substrate by unlabelled competitor [10]: −8% | % inhibition of uptake of substrate by unlabelled competitor [11]: 5% | % inhibition of uptake of substrate by unlabelled competitor ([12]; [^14C]betaine 10 μM): 99% | % inhibition of uptake of substrate by unlabelled competitor ([12]; [^14C]choline 10 μM): 96%
